From article PMC12410723, “Structure-function studies of Vibrio cholerae quorum-sensing receptor CqsR signal recognition” (PLOS Pathogens, 2025)

Assays:
[1] = target: CqsR periplasmic domain (CqsRp) (Vibrio cholerae, UniProt Q9KR16); settings: MST binding studies, summary of Fig 4
[2] = tested on: CqsRp; settings: thermal unfolding; cited from earlier work
[3] = tested on: CqsR-D171A; settings: CqsR-D171A strain, exogenously added ethanolamine
[4] = tested on: CqsR-Y169A; settings: CqsR-Y169A strain, exogenously added ethanolamine
[5] = tested on: WT CqsR; settings: WT CqsR strain, exogenously added ethanolamine
[6] = tested on: CqsR-D198N; settings: CqsR-D198N strain, exogenously added ethanolamine
[7] = tested on: CqsR-W151A; settings: CqsR-W151A strain, exogenously added ethanolamine
[8] = tested on: CqsR-T196A; settings: CqsR-T196A strain, exogenously added ethanolamine
[9] = tested on: CqsR; settings: in vivo / in culture, high-cell-density phenotype; cited from earlier work

## NCCN [Ethylenediamine, ethylenediamine]
[1]
  CqsR binding (in words): Weak CqsR binding

## CC[C@H](N)CO [(S)-(+)-2-amino-1-butanol]
[1]
  CqsR binding (in words): Weak CqsR binding

## NCCS [cysteamine]
[1]
  CqsR binding (in words): not tolerated

## NCC(N)=O [glycinamide]
[1]
  CqsR binding (in words): not tolerated

## C[C@H](N)CO [L-alaninol]
[2]
  CqsRp melting temperature: increased

## CCC(N)CC [pentan-3-amine]
[1]
  CqsR binding (in words): not tolerated

## CCC(N)CO (stereo not shown) [2-amino-1-butanol]
[1]
  CqsR binding (in words): Weak CqsR binding

## OCC(O)CO [Glycerol, glycerol]
[1]
  CqsR binding (in words): No binding

## OCCO [Ethylene glycol, ethylene glycol]
[1]
  CqsR binding (in words): No binding

## NCCO [Ethanolamine, ethanolamine]
[3]
  qrr4 transcription (bioluminescence): intermediate phenotype
[4]
  qrr4 transcription (bioluminescence): reduced to a level comparable to that of the WT
[5]
  qrr4 transcription (bioluminescence): reduced in a dose-dependent manner
[6]
  qrr4 transcription (bioluminescence): completely irresponsive
[7]
  qrr4 transcription (bioluminescence): intermediate phenotype
[8]
  qrr4 transcription (bioluminescence): reduced to a level comparable to that of the WT
[9]
  CqsR signaling agonism: acted as CqsR signaling agonists

## CCCN [propylamine]
[1]
  CqsR binding (in words): not tolerated

## NC(CO)(CO)CO [Tris, tris]
[1]
  CqsR binding (in words): Weak CqsR binding

## NCC(=O)O [Glycine, glycine]
[1]
  CqsR binding (in words): not tolerated

## CCCO [propanol]
[1]
  CqsR binding (in words): No binding

## C[C@H](N)C(=O)O [Alanine, alanine]
[1]
  CqsR binding (in words): not tolerated

## NC(CO)CO [Serinol, serinol]
[2]
  CqsRp melting temperature: increased
